# Key:
# Assay type in all cases: binding
# OsSPX4–OsPHR2 = molecular target: T1, OsSPX4–OsPHR2 (Oryza sativa, UniProt Q10B79); experiment: isothermal titration calorimetry
# T1 construct: gene SPX4; OsSPX4 1-321 (cloning sentence prints OsSPX2 1-321, purification OsSPX4 1-321; His-Strep-Sumo tag cleaved) with full-length OsPHR2 1-426 (His-Strep-GB1 tag, TEV cleaved); E. coli; with Protein PHOSPHATE STARVATION RESPONSE 2
# AtPHR1^280–360 [1] = molecular target: T2, AtPHR1^280–360 (Arabidopsis thaliana, UniProt Q94CL7, K325A/H328A/R335A); experiment: […] TROSY NMR titration; details: 25 mM HEPES pH 7.0, 200 mM NaCl, 0.5 mM TCEP, 30 °C
# T2 construct: gene PHR1; coiled-coil domain fragment, residues 280-360, 6xHis tag cleaved by TEV, 15N,2H-labeled, E. coli
# AtPHR1^280–360 [2] = molecular target: T3, AtPHR1^280–360 (Arabidopsis thaliana, UniProt Q94CL7); experiment: […] TROSY NMR titration; details: 25 mM HEPES pH 7.0, 200 mM NaCl, 0.5 mM TCEP, 30 °C
# T3 construct: gene PHR1; coiled-coil domain fragment, residues 280-360, 6xHis tag cleaved by TEV, 15N,2H-labeled, E. coli
# T3 sequence (Q94CL7 280-360): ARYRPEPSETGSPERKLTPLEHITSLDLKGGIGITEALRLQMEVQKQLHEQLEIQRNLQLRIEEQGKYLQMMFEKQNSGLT
# T1 sequence (Q10B79 whole entry): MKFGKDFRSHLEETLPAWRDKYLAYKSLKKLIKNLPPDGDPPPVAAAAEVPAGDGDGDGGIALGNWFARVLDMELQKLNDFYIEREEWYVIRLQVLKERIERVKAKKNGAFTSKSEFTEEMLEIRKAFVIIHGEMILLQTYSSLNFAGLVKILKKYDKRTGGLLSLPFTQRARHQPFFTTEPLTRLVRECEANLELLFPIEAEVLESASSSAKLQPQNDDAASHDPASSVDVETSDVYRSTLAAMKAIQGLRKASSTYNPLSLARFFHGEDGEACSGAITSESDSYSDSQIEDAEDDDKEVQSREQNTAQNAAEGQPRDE
# T1 sequence (Q6Z156 whole entry partner): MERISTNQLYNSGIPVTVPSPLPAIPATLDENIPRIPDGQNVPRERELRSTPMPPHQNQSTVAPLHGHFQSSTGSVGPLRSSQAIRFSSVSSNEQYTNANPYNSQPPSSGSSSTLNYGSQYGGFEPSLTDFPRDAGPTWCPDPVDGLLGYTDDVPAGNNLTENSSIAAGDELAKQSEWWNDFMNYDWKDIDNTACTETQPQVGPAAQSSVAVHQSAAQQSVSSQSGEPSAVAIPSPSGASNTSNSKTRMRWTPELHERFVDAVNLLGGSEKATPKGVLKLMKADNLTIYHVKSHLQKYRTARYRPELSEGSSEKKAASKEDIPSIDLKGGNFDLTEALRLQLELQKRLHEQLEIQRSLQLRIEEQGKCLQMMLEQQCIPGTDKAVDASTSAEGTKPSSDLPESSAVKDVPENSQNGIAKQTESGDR
# T2 sequence (Q94CL7 280-360 K325A/H328A/R335A): as the sequence (Q94CL7 280-360) above, with K46A, H49A, R56A counted along it
Kd (OsSPX4–OsPHR2) [µM],Structure (SMILES),KD (AtPHR1^280–360 [1]),KD (AtPHR1^280–360 [2])
~7,O=P(O)(O)O[C@H]1[C@@H](OP(=O)(O)O)[C@H](OP(=O)(O)O)[C@@H](OP(=O)(O)OP(=O)(O)O)[C@H](OP(=O)(O)O)[C@H]1OP(=O)(O)O [InsP7],,
~3,O=P(O)(O)O[C@@H]1[C@@H](OP(=O)(O)O)[C@H](OP(=O)(O)OP(=O)(O)O)[C@@H](OP(=O)(O)O)[C@H](OP(=O)(O)OP(=O)(O)O)[C@@H]1OP(=O)(O)O [InsP8],repeated the same set of experiments using the AtPHR1^KHR/A mutant protein,The derived dissociation constant is in the millimolar range and saturation could not be reached

# From article PMC7810988, “Inositol pyrophosphates promote the interaction of SPX domains with the coiled-coil motif of PHR transcription factors to regulate plant phosphate homeostasis” (Nature Communications, 2021)
